According to US7923585B2, “Menthol derivative and cooling agent composition comprising the same” (Takasago International Corporation, priority 2004, dated 2011):

Tested on: expert panelists (oral evaluation)
Assay: Sensory evaluation: oral evaluation of an aqueous solution by expert panelists
Assay type: in vivo, human
Settings: 20 ppm, 7 expert panelists, all seven gave this evaluation
Procedure: Oral evaluation of an aqueous solution of 2-(2-l-menthyloxyethyl)ethanol obtained in Example 1 in a concentration of 20 ppm was carried out by 7 expert panelists having 5 years or longer experience.

CC(C)[C@@H]1CC[C@@H](C)C[C@H]1OCCOCCO [2-(2-l-menthyloxyethyl)ethanol]
cool and refreshing feeling quality (oral evaluation): excellent cool and refreshing feeling quality
